# Measured values as given in patent US20240391931A1 (Bristol-Myers Squibb Company, priority 2021, published 2024).
# Legend:
# HER2VC (G776delinsVC) = molecular target: T1, HER2VC (G776delinsVC) (Homo sapiens, UniProt P04626, G776C/INS775V); assay: HER2 signaling (pHER2) in NCI-H1781 cells; type: cell-based; conditions: 1.5 hr compound, 1% FBS
# T1 construct: NCI-H1781 cells which endogenously expresses a HER2 mutant protein; endogenous in cells; host or cells: NCI-H1781
# Experimental: (§1) In addition to the engineered cell lines, the following cell lines were used: BT474 (human breast carcinoma), N87 (human gastric carcinoma), NCI-H1781 (human lung adenocarcinoma), and A431 (human epidermoid carcinoma); all cell lines were obtained from the American Type Culture Collection (ATCC, Manassas, VA). NCI-H1781 were grown in complete RPMI 1640 (Life Technologies, Carlsbad, CA) supplemented with 15% fetal bovine serum (FBS, Life Technologies, Carlsbad, CA) and 1% Penicillin-Streptomycin (P/S, Life Technologies, Carlsbad, CA). N87 cells were grown in complete RPMI 1640 supplemented with 10% FBS and 1% P/S. BT474 and A431 cells were grown in DMEM (Life Technologies, Carlsbad, CA) supplemented with 10% FBS and 1% P/S. All cells were maintained and propagated in a humidified 5% CO2 incubator at 37° C.
# (§2) HER2 signaling was assessed in BT474 and N87 cell lines which endogenously overexpress the HER2 wildtype (WT) protein, in NCI-H1781 cells which endogenously expresses a HER2 mutant protein containing a VC insertion in the kinase domain (HER2VC or G776delinsVC), and in engineered cell lines transduced to express the Her2 mutant protein containing the YVMA insertion (Hek293-HER2YVMA and BEAS2B-HER2YVMA).
# (§3) BT474, N87, and NCI-H1781 were plated in 96-well tissue-culture treated plates (Corning Costar, Sigma-Aldrich) in full media and incubated overnight. Hek293-HER2YVMA and BEAS2B-HER2YVMA cells were plated in 96-well poly-D-lysine treated plates (BD Bioscience, San Jose, CA). For treatment with test compounds, the media was replaced with corresponding low serum media (1% FBS) containing test compound at 1.1, 0.37, 0.12, 0.041, 0.014, 0.005, 0.0014, 0.0005 μM or DMSO control (0.1%). Cells were incubated with compound for 1.5 hr at 37° C. After compound treatment, the media was removed and cells were lysed for 30 min on ice in complete MSD lysis buffer (prepared using MSD base lysis buffer (Meso-Scale Discovery) supplemented with cOmplete, EDTA-free Protease inhibitor cocktail (Roche), Phosphatase Inhibitor Cocktails 2 and 3 (Sigma-Aldrich), and 1 mM PMSF (Sigma-Aldrich)). Lysates were stored at −70° C. until further analysis.
# (§4) HER2 signaling was evaluated using phospho (Tyr1248)/total ErbB2 whole cell lysate MSD plates (Meso-Scale Discovery, Gaithersburg, MD). The phospho HER2 signal was normalized to total HER2 for each sample; results are reported as % DMSO control. The normalized data was fitted using a sigmoidal curve analysis program (Graph Pad Prism version 6) with variable Hill slope to determine EC50 values.
# (§5) The HER2 signaling results are provided in Table 4, under columns titled “BT474-pHER2 EC50”, “N87-pHER2 EC50”, and “NCI-H1781-pHER2 EC50”. Hek293-HER2YVMA ins fall under the heading “HEKYVMA-pHER2 EC50”, Ba/F3 HER2YVMA fall under the heading “Ba/F3 YVMA-pHER2 EC50” and BEAS2B-HER2YVMA fall under the heading “BEAS2B YVMA-pHER2 EC50”.
# [1] = molecular target: T2, HER2 wildtype (WT) protein (Homo sapiens, UniProt P04626); assay: HER2 signaling (pHER2 Tyr1248/total HER2 MSD) in N87 cells; type: cell-based; conditions: 1.5 hr compound, 1% FBS
# T2 construct: BT474 and N87 cell lines which endogenously overexpress the HER2 wildtype (WT) protein; endogenous in cells; host or cells: BT474, N87
# T2 sequence (P04626 23-1255): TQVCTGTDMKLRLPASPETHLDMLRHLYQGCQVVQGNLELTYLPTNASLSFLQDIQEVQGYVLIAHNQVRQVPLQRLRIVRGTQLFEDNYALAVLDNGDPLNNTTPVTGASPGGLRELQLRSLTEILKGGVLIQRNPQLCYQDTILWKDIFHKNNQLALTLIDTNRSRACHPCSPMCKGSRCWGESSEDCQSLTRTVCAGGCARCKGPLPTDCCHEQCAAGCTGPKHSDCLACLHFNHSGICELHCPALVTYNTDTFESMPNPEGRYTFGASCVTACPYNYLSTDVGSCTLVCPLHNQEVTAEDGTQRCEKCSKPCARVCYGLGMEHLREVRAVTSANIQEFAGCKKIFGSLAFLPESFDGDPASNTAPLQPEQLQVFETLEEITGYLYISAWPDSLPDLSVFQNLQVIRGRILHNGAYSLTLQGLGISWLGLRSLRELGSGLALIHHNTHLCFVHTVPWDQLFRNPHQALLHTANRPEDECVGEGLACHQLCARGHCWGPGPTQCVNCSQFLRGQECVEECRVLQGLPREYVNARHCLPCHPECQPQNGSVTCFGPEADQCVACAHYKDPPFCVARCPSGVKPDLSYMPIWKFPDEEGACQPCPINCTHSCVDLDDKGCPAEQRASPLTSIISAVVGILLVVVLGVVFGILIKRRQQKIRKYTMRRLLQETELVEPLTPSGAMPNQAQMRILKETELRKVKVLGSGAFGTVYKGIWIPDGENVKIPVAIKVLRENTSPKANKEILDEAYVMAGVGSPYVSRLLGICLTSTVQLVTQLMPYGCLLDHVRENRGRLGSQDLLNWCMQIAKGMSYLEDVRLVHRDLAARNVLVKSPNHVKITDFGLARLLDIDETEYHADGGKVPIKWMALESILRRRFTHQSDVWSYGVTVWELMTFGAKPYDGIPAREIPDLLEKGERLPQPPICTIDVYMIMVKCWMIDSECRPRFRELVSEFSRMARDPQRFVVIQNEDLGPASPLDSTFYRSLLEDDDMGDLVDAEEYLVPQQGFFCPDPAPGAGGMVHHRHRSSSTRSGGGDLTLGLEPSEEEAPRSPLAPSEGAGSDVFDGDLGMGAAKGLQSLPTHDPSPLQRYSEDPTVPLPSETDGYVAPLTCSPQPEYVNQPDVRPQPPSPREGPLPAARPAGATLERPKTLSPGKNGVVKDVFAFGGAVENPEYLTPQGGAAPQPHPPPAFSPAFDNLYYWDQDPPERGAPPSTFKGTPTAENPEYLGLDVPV
# Experimental: as §1, §2, §3, §4, §5
# N87 cells = assay: Cellular proliferation in N87 cells (CellTiter Glo); type: cell-based, human; conditions: 72 h
# Experimental: as §1
# Cell proliferation in adherent cells was investigated in two HER2 amplified cell lines (BT474, N87), and a HER2VC expressing cell line (NCI-H1781). BT474, NCI-H1781, and N87 were plated in their appropriate growth media supplemented with either 10% FBS (BT474, N87) or 15% FBS (NCI-H1781) and 1% P/S in 96-well white clear-bottom tissue culture plates (Costar, Sigma-Aldrich). The starting cell densities were 3500, 5500, and 5000 cells for BT474, NCI-H1781, and N87 cells, respectively. An 8-point standard curve with varying cell densities (starting at 50000 cells and serially diluting down 2-fold) was prepared for each cell line and read 6 h after plating. Cells were allowed to attach overnight prior to compound treatment. Compound solutions were prepared by serially diluting test compounds in DMSO (Sigma-Aldrich), then diluting 500× in their corresponding serum free media. Cells were treated by adding a 1:1 volume of test compound to a final concentration of […], 0.004, 0.0014, or 0.0005 μM, in 0.1% DMSO and 5% FBS (for BT474 and N87) or 7.5% FBS (NCI-H1781). In BT474 and NCI-H1781, cell media was replaced and cells were redosed with fresh test compound solutions after 72 h. Viability was determined by CellTiter Glo (Promega, Madison, WI) after 72 h for N87 cells, and after 120 h for BT474 and […] cells. The results were converted to cell numbers using a standard curve; growth inhibition (GI50 values) were determined by Graph Pad Prism. […] The results are provided in Table 4, under columns titled “BT474-GI50”, “N87-GI50”, and “NCI-H1781-GI50”.
# T1 sequence (P04626 with tags, fused parts or gaps INS775V/G776C): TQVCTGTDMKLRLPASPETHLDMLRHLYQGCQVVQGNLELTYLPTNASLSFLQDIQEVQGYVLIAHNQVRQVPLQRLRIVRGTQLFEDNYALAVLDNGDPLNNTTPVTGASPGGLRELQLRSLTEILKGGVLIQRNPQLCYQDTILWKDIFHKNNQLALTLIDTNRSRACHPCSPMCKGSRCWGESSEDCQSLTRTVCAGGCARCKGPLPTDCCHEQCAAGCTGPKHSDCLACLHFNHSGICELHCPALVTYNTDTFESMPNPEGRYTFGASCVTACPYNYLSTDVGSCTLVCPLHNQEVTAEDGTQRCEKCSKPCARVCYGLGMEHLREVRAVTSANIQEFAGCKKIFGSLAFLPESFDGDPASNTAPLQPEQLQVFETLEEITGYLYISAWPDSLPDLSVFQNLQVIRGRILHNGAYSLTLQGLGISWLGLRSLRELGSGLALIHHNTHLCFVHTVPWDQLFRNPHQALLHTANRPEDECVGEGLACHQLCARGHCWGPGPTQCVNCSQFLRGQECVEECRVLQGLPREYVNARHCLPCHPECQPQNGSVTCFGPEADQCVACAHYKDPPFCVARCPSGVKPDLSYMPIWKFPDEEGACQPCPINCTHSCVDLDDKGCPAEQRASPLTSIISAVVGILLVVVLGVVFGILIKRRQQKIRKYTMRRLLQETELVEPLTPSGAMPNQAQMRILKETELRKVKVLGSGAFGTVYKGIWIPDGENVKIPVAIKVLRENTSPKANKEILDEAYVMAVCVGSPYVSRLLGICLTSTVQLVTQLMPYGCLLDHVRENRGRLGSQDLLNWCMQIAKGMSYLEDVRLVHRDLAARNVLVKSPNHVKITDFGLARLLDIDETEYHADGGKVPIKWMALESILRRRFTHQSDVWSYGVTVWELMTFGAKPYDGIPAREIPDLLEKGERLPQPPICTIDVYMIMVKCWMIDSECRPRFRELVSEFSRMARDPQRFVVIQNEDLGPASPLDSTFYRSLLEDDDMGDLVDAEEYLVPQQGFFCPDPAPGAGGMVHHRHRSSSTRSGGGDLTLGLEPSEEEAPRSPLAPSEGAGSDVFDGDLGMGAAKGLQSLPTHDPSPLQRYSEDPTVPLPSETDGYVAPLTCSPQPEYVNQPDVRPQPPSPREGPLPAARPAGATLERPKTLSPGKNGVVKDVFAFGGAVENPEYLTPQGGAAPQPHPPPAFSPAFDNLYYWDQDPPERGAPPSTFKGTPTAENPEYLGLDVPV
EC50 (HER2VC (G776delinsVC)) [nM],EC50 [1] [nM],SMILES,GI50 (N87 cells; Homo sapiens) [nM],GI50 (N87 cells) [nM]
< 100,< 100,"Cc1ccc(Oc2ccc(Nc3ncnc4sc5c(c34)C(C)CN(C(=O)C=CCN(C)C)C5)cc2C)cn1 (single isomer, unassigned) [Compound 105]",< 100,–
< 100,< 100,"Cc1ccc(Oc2ccc(Nc3ncnc4sc5c(c34)C(C)CN(C(=O)C=CCN(C)C)C5)cc2C)cn1 (single isomer, unassigned) [Compound 106]",–,< 100
< 100,–,"Cc1cc(Nc2ncnc3sc4c(c23)CCN(C(=O)/C=C/CN(C)C)C4)ccc1Oc1ccc2ncnn2c1 [Compound 3, (E)-1-(4-((4-([1,2,4]triazolo[1,5-a]pyridin-6-yloxy)-3-methylphenyl)amino)-5,8-dihydropyrido[4′,3′:4,5]thieno[2,3-d]pyrimidin-7(6H)-yl)-4-(dimethylamino)but-2-en-1-one]",–,–
< 100,–,"C=CC(=O)N1CCc2c(sc3ncnc(Nc4ccc(Oc5ccc6ncnn6c5)c(Cl)c4)c23)C1 [Compound 4, 1-(4-((4-([1,2,4]triazolo[1,5-a]pyridin-6-yloxy)-3-chlorophenyl)amino)-5,8-dihydropyrido[4′,3′:4,5]thieno[2,3-d]pyrimidin-7(6H)-yl)prop-2-en-1-one]",–,–
< 100,< 100,"CN(C)C/C=C/C(=O)N1CCc2c(sc3ncnc(Nc4ccc(Oc5ccc6ncnn6c5)c(Cl)c4)c23)C1 [Compound 5, (E)-1-(4-((4-([1,2,4]triazolo[1,5-a]pyridin-6-yloxy)-3-chlorophenyl)amino)-5,8-dihydropyrido[4′,3′:4,5]thieno[2,3-d]pyrimidin-7(6H)-yl)-4-(dimethylamino)but-2-en-1-one]",–,–
< 100,< 100,Cc1ccc(Oc2ccc(Nc3ncnc4sc5c(c34)CCN(C(=O)/C=C/CN(C)C(C)(C)C)C5)cc2C)cn1 [Compound 33],< 100,–
< 100,< 100,Cc1ccc(Oc2ccc(Nc3ncnc4sc5c(c34)CCN(C(=O)/C=C/CN3CC4C(CO)C4C3)C5)cc2C)cn1 (centres unmarked) [Compound 34],< 100,–
–,–,Cc1ccc(Oc2ccc(Nc3ncnc4sc5c(c34)CCN(C(=O)/C=C/CN3CCCOCC3)C5)cc2C)cn1 [Compound 42],< 100,–
< 100,< 100,"COc1ccc(Oc2ccc(Nc3ncnc4sc5c(c34)CCN(C(=O)/C=C/CN(C)C)C5)cc2C)cn1 [Compound 95, (E)-4-(Dimethylamino)-1-(4-((4-((6-methoxypyridin-3-yl)oxy)-3-methylphenyl)amino)-5,6-dihydropyrido[4′,3′:4,5]thieno[2,3-d]pyrimidin-7(8H)-yl)but-2-en-1-one]",< 100,–
< 100,–,"Cc1ccc(Oc2ccc(Nc3ncnc4sc5c(c34)C(C)CN(C(=O)/C=C/CN(C)C)C5)cc2C)cn1 (centres unmarked) [Compound 98, (E)-4-(dimethylamino)-1-(5-methyl-4-((3-methyl-4-((6-methylpyridin-3-yl)oxy)phenyl)amino)-5,8-dihydropyrido[4′,3′:4,5]thieno[2,3-d]pyrimidin-7(6H)-yl)but-2-en-1-one]",< 100,–
–,–,"Cc1ccc(Oc2ccc(Nc3ncnc4sc5c(c34)CN(C(=O)/C=C/CN(C)C)C5)cc2C)cn1 [Compound 99, (E)-4-(dimethylamino)-1-(4-((3-methyl-4-((6-methylpyridin-3-yl)oxy)phenyl)amino)-5,7-dihydro-6H-pyrrolo[3′,4′:4,5]thieno[2,3-d]pyrimidin-6-yl)but-2-en-1-one]",< 100,–
< 100,< 100,"Cc1ccc(Oc2ccc(Nc3ncnc4sc5c(c34)CCN(C(=O)/C=C/CN(C)C)CC5)cc2C)cn1 [Compound 100, (E)-4-(dimethylamino)-1-(4-((3-methyl-4-((6-methylpyridin-3-yl)oxy)phenyl)amino)-8,9-dihydro-5H-pyrimido[5′,4′:4,5]thieno[2,3-d]azepin-7(6H)-yl)but-2-en-1-one]",< 100,–
